Reference: ChEMBL document CHEMBL4184305, “Inhibition of histone lysine methyltransferases G9a and GLP by ejection of structural Zn(II)” (Bioorg Med Chem Lett, 2018)
Calls of active or inactive are those of the source. The rule behind the calls is not given here.

Experiments:
[1] = target: T1, Histone-lysine N-methyltransferase EHMT1 (Homo sapiens) (UniProt Q9H9B1); experiment: Inhibition of wild type recombinant human histone lysine methyltransferase GLP (951 to 1235 residues) expressed in Escherichia coli Rosetta BL21 DE3 PlysS at 100 uM using ARTKQTARKSTGGKA as substrate preincubated for 5 mins followed by substrate/SAM addition measured after 60 mins by MALDI-TOF MS analysis
T1 sequence (whole entry): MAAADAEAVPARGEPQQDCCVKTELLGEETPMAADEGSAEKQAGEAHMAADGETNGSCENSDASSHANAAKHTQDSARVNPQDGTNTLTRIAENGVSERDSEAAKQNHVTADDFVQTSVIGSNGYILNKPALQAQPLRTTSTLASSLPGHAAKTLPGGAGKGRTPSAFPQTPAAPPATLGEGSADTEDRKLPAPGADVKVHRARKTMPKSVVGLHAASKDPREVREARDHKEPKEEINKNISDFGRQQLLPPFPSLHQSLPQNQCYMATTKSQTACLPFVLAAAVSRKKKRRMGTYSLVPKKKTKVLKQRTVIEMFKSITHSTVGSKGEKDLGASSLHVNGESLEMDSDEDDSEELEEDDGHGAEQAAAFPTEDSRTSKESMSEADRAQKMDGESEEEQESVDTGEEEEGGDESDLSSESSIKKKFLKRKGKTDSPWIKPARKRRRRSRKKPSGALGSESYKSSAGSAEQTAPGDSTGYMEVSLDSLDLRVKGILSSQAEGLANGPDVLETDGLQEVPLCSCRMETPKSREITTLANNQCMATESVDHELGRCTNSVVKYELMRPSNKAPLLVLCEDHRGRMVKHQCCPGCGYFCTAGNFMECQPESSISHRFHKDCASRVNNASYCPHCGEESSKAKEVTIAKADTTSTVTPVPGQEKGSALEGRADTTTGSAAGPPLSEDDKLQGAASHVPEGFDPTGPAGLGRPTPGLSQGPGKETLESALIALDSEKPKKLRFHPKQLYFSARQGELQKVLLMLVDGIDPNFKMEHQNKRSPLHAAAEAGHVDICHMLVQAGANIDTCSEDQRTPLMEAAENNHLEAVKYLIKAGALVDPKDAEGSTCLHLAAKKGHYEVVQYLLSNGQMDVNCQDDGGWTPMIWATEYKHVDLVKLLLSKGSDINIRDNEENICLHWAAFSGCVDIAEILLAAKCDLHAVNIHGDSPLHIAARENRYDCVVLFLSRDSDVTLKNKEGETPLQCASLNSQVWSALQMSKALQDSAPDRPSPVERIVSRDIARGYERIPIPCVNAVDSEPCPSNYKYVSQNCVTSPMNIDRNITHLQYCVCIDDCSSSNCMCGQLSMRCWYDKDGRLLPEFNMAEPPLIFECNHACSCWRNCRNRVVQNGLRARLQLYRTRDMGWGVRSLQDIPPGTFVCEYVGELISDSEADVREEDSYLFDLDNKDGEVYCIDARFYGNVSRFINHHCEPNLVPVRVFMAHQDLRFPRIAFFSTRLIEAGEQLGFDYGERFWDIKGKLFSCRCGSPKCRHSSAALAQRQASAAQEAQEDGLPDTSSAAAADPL

[2] = target: T2, Histone-lysine N-methyltransferase EHMT2 (Homo sapiens) (UniProt Q96KQ7); experiment: Inhibition of wild type recombinant human histone lysine methyltransferase G9a (913 to 1193 residues) expressed in Escherichia coli Rosetta BL21 DE3 PlysS assessed as zinc ions ejection from Cys4-Zn finger at 2.5 to 100 uM after 500 to 3500 secs by FluoZin-3 based fluorescence assay
T2 sequence (whole entry): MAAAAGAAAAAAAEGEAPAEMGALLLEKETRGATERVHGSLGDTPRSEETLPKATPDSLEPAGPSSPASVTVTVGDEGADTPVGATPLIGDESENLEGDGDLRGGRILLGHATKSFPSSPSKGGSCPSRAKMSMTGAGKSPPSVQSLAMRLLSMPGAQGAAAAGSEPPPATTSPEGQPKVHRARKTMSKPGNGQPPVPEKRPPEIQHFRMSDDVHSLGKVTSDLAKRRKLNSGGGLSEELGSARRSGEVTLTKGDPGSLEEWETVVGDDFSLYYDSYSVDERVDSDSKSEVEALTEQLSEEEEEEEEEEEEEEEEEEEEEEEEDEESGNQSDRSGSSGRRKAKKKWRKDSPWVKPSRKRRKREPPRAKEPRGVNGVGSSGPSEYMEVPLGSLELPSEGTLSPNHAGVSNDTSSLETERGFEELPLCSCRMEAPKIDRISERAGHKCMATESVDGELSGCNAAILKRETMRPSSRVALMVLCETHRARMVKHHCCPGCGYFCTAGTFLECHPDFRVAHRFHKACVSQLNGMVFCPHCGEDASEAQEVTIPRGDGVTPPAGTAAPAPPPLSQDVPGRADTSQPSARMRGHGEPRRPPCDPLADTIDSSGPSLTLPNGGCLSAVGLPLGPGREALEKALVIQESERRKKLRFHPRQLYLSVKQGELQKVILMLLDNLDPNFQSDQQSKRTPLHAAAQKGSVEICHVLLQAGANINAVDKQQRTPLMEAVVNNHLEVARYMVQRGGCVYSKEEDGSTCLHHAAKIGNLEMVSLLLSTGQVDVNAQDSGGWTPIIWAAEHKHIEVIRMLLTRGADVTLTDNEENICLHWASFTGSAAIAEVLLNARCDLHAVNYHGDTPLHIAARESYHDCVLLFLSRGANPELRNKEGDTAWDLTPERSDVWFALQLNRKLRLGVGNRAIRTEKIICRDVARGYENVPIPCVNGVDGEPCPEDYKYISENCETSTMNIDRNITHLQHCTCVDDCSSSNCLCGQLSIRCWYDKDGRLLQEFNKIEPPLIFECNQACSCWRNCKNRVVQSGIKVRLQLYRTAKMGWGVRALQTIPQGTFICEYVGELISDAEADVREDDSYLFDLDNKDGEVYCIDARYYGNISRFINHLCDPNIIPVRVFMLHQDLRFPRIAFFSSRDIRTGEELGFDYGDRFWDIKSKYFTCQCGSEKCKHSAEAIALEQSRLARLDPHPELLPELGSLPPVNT

[3] = target: T3, Histone-lysine N-methyltransferase EHMT1 (Homo sapiens, UniProt Q9H9B1); experiment: Inhibition of wild type recombinant human histone lysine methyltransferase GLP (951 to 1235 residues) expressed in Escherichia coli Rosetta BL21 DE3 PlysS using ARTKQTARKSTGGKA as substrate preincubated for 5 mins followed by substrate/SAM addition measured after 60 mins by MALDI-TOF MS analysis
T3 sequence (Q9H9B1 whole entry): T1 sequence (whole entry)

[4] = target: T1, Histone-lysine N-methyltransferase EHMT1 (Homo sapiens); experiment: Inhibition of wild type recombinant human histone lysine methyltransferase GLP (951 to 1235 residues) expressed in Escherichia coli Rosetta BL21 DE3 PlysS assessed as zinc ions ejection from 3 types of Cys9-type Zn fingers at >25 uM after 1 hr by circular dichroism analysis
[5] = target: T2, Histone-lysine N-methyltransferase EHMT2 (Homo sapiens); experiment: Inhibition of wild type recombinant human histone lysine methyltransferase G9a (913 to 1193 residues) expressed in Escherichia coli Rosetta BL21 DE3 PlysS assessed as zinc ions ejection from Cys4-Zn finger at 2.5 to 100 uM measured up to 1 min by FluoZin-3 based fluorescence assay

SMILES	inhibition [1] [%]	inhibition [2]	IC50 [3] [µM]	inhibition [4]	inhibition [5]
CCN(CC)C(=S)SSC(=S)N(CC)CC	> 50	Active	1.6	–	–
O=c1c2ccccc2[se]n1-c1ccccc1 [EBSELEN]	> 50	–	0.73	Active	Active
